Tested on: Botrytis cinerea
Experiment: Treatment of sweet peppers (Example 10)
Format: in vivo
Settings: 20° C., 150 ppm spiroxamine or both
Protocol: Ten fresh, organic sweet peppers were used per treatment. Each sweet pepper was soaked in a 180 ppm hypochlorite solution for 10 minutes, then rinsed thoroughly with fresh tap water and dried. The peel of each disinfected sweet pepper was wounded once using a cork borer according to the method described by de Lapeyre de Bellaire and Dubois (1987). Subsequently, each wound was inoculated with 10 μl of a Botrytis cinerea suspension containing 1×10^5 of spores/ml. After incubation for 3 hours at 20° C., each wound and the skin area of 0.5 cm around the wound was treated with in total 75 μl of a freshly prepared aqueous antifungal composition comprising either 200 ppm natamycin (DSM Food Specialties, Delft, The Netherlands), 150 ppm spiroxamine or both. […]
The treated sweet peppers were incubated in a closed box in the dark at 20° C. and assessed on mould growth during incubation. The antifungal activity (in %) of the individual and combined active ingredients was determined by calculating the reduction in mould growth observed on the sweet peppers treated with the antifungal composition in comparison to the mould growth on the sweet peppers treated with the control composition according to the Colby method (Colby, 1967) as described in Example 5.

In the case of `CCCN(CC)CC1COC2(CCC(C(C)(C)C)CC2)O1` (centres unmarked) [Spiroxamine, spiroxamine], the “Observed antifungal activity O (%)” value (day 12, 200 ppm natamycin) is reported as 0% and the “Observed antifungal activity O (%)” value (day 13, 200 ppm natamycin) is reported as 0%.

From US20150133297A1, “NEW ANTIFUNGAL COMPOSITIONS” (DSM IP ASSETS B.V., priority 2012, published 2015)
